For one assay, the target named is T1, PIP4K2C (Homo sapiens, UniProt Q8TBX8).
T1 sequence (Q8TBX8 1-421): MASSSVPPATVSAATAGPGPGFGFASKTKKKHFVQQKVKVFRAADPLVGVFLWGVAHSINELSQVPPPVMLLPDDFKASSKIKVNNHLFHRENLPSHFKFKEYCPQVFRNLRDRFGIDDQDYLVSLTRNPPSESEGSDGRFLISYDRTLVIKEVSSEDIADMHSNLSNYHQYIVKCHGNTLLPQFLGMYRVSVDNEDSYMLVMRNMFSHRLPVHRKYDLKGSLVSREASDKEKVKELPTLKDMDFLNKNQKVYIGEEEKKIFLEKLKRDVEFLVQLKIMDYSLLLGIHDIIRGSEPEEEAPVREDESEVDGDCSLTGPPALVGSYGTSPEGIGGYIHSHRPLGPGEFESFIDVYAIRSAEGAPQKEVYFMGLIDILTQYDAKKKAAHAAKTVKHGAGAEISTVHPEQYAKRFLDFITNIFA
The assay is described as follows: HiBiT PIP4K2C degradation assay in MOLT-4 cells (endogenous PIP4K2C C-terminally tagged with HiBiT). On the set-up: untagged in primary human PBMCs and monocyte-derived dendritic cells. Format: cell-based. To be noted: 6 hours of incubation time, rather than 24 hours; MOLT-4, top concentration 10 micromolar; read-out: HiBIT-degradation MOLT4 PIP4k2C DC50 (6 hours, marked *). In a few lines: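 Endogenous PIP4K2C was C-terminally HiBiT-tagged by CRISPR-Cas9 in MOLT-4 cells, which were treated with a 10-point, 3-fold dilution series from 10 micromolar in duplicate for 24 or 6 hours at 37 C. Remaining protein was read by HiBiT lytic luminescence, and DC50 came from a Hill fit.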
On the technique in general: With HiBiT, luminescence reflects the tagged protein that the partner subunit can reach.
As for `O=C1CCC(Nc2ccc(N3CCN([C@H]4CC[C@H](CC(=O)N5CCC(Nc6ncc(F)c(-c7cccc(-n8ccccc8=O)c7)n6)CC5)CC4)CC3)c(F)c2)C(=O)N1` (stereo partly drawn) [Compound 650, trans-3-((3-fluoro-4-(4-(4-(2-(4-((5-fluoro-4-(3-(2-oxopyridin-1 (2H)-yl)phenyl)pyrimidin-2-yl)amino)piperidin-1-yl)-2-oxoethyl)cyclohexyl)piperazin-1-yl)phenyl)amino)piperidine-2,6-dione], the DC50 – broadly, the concentration giving 50% degradation – is greater than 5000 nM. As to `O=C1CCC(Nc2ccc(N3CCC(N4CCC(CC(=O)N[C@H]5CC[C@H](Nc6ncc(F)c(-c7cccc(-n8ccccc8=O)c7)n6)CC5)CC4)CC3)c(F)c2)C(=O)N1` (stereo partly drawn) [Compound 395, trans-2-(1′-(4-((2,6-dioxopiperidin-3-yl)amino)-2-fluorophenyl)-[1,4′-bipiperidin]-4-yl)-N-((1r,4r)-4-((5-fluoro-4-(3-(2-oxopyridin-1(2H)-yl)phenyl)pyrimidin-2-yl)amino)cyclohexyl)acetamide], the DC50 was less than 500 nM. On the same count and under the same terms, the same measure for `O=C1CCC(Nc2ccc(N3CCN(CC4(F)CCN(C(=O)[C@H]5CC[C@H](Nc6ncc(F)c(-c7cccc(-n8ccccc8=O)c7)n6)CC5)CC4)CC3)c(F)c2)C(=O)N1` (stereo partly drawn) [Compound 528, trans-3-((3-fluoro-4-(4-((4-fluoro-1-(4-((5-fluoro-4-(3-(2-oxopyridin-1(2H)-yl)phenyl)pyrimidin-2-yl)amino)cyclohexane-1-carbonyl)piperidin-4-yl)methyl)piperazin-1-yl)phenyl)amino)piperidine-2,6-dione]: less than 500 nM; for `O=C1CCC(Nc2ccc(N3CCC(OC4CCN(C(=O)[C@H]5CC[C@H](Nc6ncc(F)c(-c7cccc(-c8ccc[nH]c8=O)c7)n6)CC5)CC4)CC3)c(F)c2)C(=O)N1` (stereo partly drawn) [Compound 403, trans-3-((3-fluoro-4-(4-((1-(4-((5-fluoro-4-(3-(2-oxo-1,2-dihydropyridin-3-yl)phenyl)pyrimidin-2-yl)amino)cyclohexane-1-carbonyl)piperidin-4-yl)oxy)piperidin-1-yl)phenyl)amino)piperidine-2,6-dione]: less than 500 nM; for `CN(C(=O)[C@H]1CC[C@H](N2CCN(c3ccc(NC4CCC(=O)NC4=O)cc3F)CC2)CC1)[C@H]1CC[C@H](Nc2ncc(F)c(-c3cccc(C4CC4)c3)n2)CC1` (stereo partly drawn) [Compound 478, trans-N-((trans)-4-((4-(3-cyclopropylphenyl)-5-fluoropyrimidin-2-yl)amino)cyclohexyl)-4-(4-(4-((2,6-dioxopiperidin-3-yl)amino)-2-fluorophenyl)piperazin-1-yl)-N-methylcyclohexane-1-carboxamide]: less than 500 nM. Still for that read-out and setting: to `O=C1CCC(Nc2ccc(C3CCN(CC4CCN(C(=O)[C@H]5CC[C@H](Nc6ncc(F)c(-c7cccc(N8CCCCC8)c7)n6)CC5)CC4)CC3)c(F)c2)C(=O)N1` (stereo partly drawn) [Compound 477, trans-3-((3-fluoro-4-(1-((1-(trans-4-((5-fluoro-4-(3-(piperidin-1-yl)phenyl)pyrimidin-2-yl)amino)cyclohexane-1-carbonyl)piperidin-4-yl)methyl)piperidin-4-yl)phenyl)amino)piperidine-2,6-dione] belongs less than 500 nM; to `O=C1CCC(Nc2ccc(N3CCN(CC4(O)CCN(C(=O)[C@H]5CC[C@H](Nc6ncc(F)c(-c7cccc(N8CCOCC8=O)c7)n6)CC5)CC4)CC3)c(F)c2)C(=O)N1` (some centres unmarked) [Compound 588], less than 500 nM. On the same count and under the same terms, the same measure for `O=C1CCC(Nc2ccc(C3CCN(CC4(O)CCN(C(=O)[C@H]5CC[C@H](Nc6ncc(F)c(-c7cccc(-n8ccccc8=O)c7)n6)CC5)CC4)CC3)c(F)c2)C(=O)N1` (stereo partly drawn) [Compound 409, trans-3-((3-fluoro-4-(1-((1-(-4-((5-fluoro-4-(3-(2-oxopyridin-1(2H)-yl)phenyl)pyrimidin-2-yl)amino)cyclohexane-1-carbonyl)-4-hydroxypiperidin-4-yl)methyl)piperidin-4-yl)phenyl)amino)piperidine-2,6-dione]: less than 500 nM; for `O=C1CCC(Nc2ccc(N3CCC(N4CCC(C(=O)N[C@H]5CC[C@H](Nc6ncc(F)c(-c7cccc(C8CC8)c7)n6)CC5)CC4)C(F)C3)c(F)c2)C(=O)N1` (some centres unmarked) [Compound 502, N-((1r,4r)-4-((4-(3-cyclopropylphenyl)-5-fluoropyrimidin-2-yl)amino)cyclohexyl)-1′-(4-((2,6-dioxopiperidin-3-yl)amino)-2-fluorophenyl)-3′-fluoro-[1,4′-bipiperidine]-4-carboxamide]: less than 500 nM; for `O=C1CCC(Nc2ccc(N3CCC(N4CCC(NC(=O)[C@H]5CC[C@H](Nc6ncc(F)c(-c7cccc(N8CCOCC8=O)c7)n6)CC5)CC4)C(F)(F)C3)c(F)c2)C(=O)N1` (stereo partly drawn) [Compound 496, trans-N-(1′-(4-((2,6-dioxopiperidin-3-yl)amino)-2-fluorophenyl)-3′,3′-difluoro-[1,4′-bipiperidin]-4-yl)-4-((5-fluoro-4-(3-(3-oxomorpholino)phenyl)pyrimidin-2-yl)amino)cyclohexane-1-carboxamide]: less than 500 nM.

The assay is the same for the next values; noted with them: 24 hours incubation, MOLT-4, top concentration 10 micromolar; read-out: HiBIT-degradation MOLT4 PIP4k2C 24 hours DC50.
Turning to `O=C1CCC(n2c(=O)oc3cc(N4CCN(CCC5CCN(C(=O)[C@@H]6CCC[C@H](Nc7ncc(F)c(-c8cccc(-n9ccccc9=O)c8)n7)C6)CC5)CC4)ccc32)C(=O)N1` (relative stereo) [Compound 342, cis-3-(6-(4-(2-(1-(3-((5-fluoro-4-(3-(2-oxopyridin-1(2H)-yl)phenyl)pyrimidin-2-yl)amino)cyclohexane-1-carbonyl)piperidin-4-yl)ethyl)piperazin-1-yl)-2-oxobenzo[d]oxazol-3 (2H)-yl)piperidine-2,6-dione], the DC50 is less than 500 nM. Still for that read-out and setting: the same measure for `O=C1CCC(n2c(=O)oc3cc(C4CCN(CC5CCN(CC(=O)N6CCC(Nc7ncc(F)c(-c8cccc(-n9ccccc9=O)c8)n7)CC6)CC5)CC4)ccc32)C(=O)N1` (centres unmarked) [Compound 303, 3-(6-(1-((1-(2-(4-((5-fluoro-4-(3-(2-oxopyridin-1(2H)-yl)phenyl)pyrimidin-2-yl)amino)piperidin-1-yl)-2-oxoethyl)piperidin-4-yl)methyl)piperidin-4-yl)-2-oxobenzo[d]oxazol-3 (2H)-yl)piperidine-2,6-dione]: less than 500 nM; for `Cn1nc(N2CCC(=O)NC2=O)c2ccc(C3CCN(CC(=O)N4CCC(O)(C(=O)N5CCC(Nc6ncc(F)c(-c7cccc(-n8ccccc8=O)c7)n6)CC5)CC4)CC3)cc21` [Compound 346, 1-(6-(1-(2-(4-(4-((5-fluoro-4-(3-(2-oxopyridin-1(2H)-yl)phenyl)pyrimidin-2-yl)amino)piperidine-1-carbonyl)-4-hydroxypiperidin-1-yl)-2-oxoethyl)piperidin-4-yl)-1-methyl-1H-indazol-3-yl)dihydropyrimidine-2,4(1H,3H)-dione]: greater than 5000 nM. As for `O=C1CCC(N2Cc3cc(C4CCN(C(=O)CN5CCC(C(=O)N6CCC(Nc7ncc(Cl)c(-c8cccc(-c9ccccc9)c8)n7)CC6)CC5)CC4)ccc3C2=O)C(=O)N1` (centres unmarked) [Compound 56, 3-(5-(1-(2-(4-(4-((4-([1,1′-biphenyl]-3-yl)-5-chloropyrimidin-2-yl)amino)piperidine-1-carbonyl)piperidin-1-yl)acetyl)piperidin-4-yl)-1-oxoisoindolin-2-yl)piperidine-2,6-dione], the DC50 was less than 500 nM. Same read-out and setting: the same measure for `O=C1CCC(n2c(=O)oc3cc(C4CCN(C[C@H]5CC[C@H](NC(=O)[C@H]6CCC[C@@H](Nc7ncc(F)c(-c8cccc(-n9ccccc9=O)c8)n7)C6)CC5)CC4)ccc32)C(=O)N1` (relative stereo) [Compound 306, cis-trans-N-(4-((4-(3-(2,6-dioxopiperidin-3-yl)-2-oxo-2,3-dihydrobenzo[d]oxazol-6-yl)piperidin-1-yl)methyl)cyclohexyl)-3-((5-fluoro-4-(3-(2-oxopyridin-1(2H)-yl)phenyl)pyrimidin-2-yl)amino)cyclohexane-1-carboxamide]: less than 500 nM. In the case of `O=C1CCC(Nc2ccc(C3CCN(CC4CCN(CC(=O)N5CCC(Nc6ncc(F)c(-c7cccc(-c8ccc[nH]c8=O)c7)n6)CC5)CC4)CC3)c(F)c2)C(=O)N1` (centres unmarked) [Compound 364, 3-((3-fluoro-4-(1-((1-(2-(4-((5-fluoro-4-(3-(2-oxo-1,2-dihydropyridin-3-yl)phenyl)pyrimidin-2-yl)amino)piperidin-1-yl)-2-oxoethyl)piperidin-4-yl)methyl)piperidin-4-yl)phenyl)amino)piperidine-2,6-dione], the DC50 was less than 500 nM.

The same assay, now with this note: read-out: HiBIT-degradation MOLT4 PIP4k2C 24 hours DC50; 24 hours incubation, MOLT-4, top concentration 10 micromolar.
For `O=C1CCC(n2c(=O)oc3cc(C4CCN(CC5CCN(CC(=O)N[C@H]6CC[C@H](Nc7ncc(F)c(C8CCCN(C(=O)C9CC9)C8)n7)CC6)CC5)CC4)ccc32)C(=O)N1` (stereo partly drawn) [Compound 359, trans-N-(4-((4-(1-(cyclopropanecarbonyl)piperidin-3-yl)-5-fluoropyrimidin-2-yl)amino)cyclohexyl)-2-(4-((4-(3-(2,6-dioxopiperidin-3-yl)-2-oxo-2,3-dihydrobenzo[d]oxazol-6-yl)piperidin-1-yl)methyl)piperidin-1-yl)acetamide], the DC50 was less than 500 nM.
